Results: ChEMBL document CHEMBL1201862, “PubChem BioAssay data set” (2004)
Structures can show the parent of a compound that is named as a salt.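 Growth conditions: 96-well plates. Treatment: test compound, 48 hours, 5 concentrations. Analysis: linear interpolation between bracketing concentrations; unreached endpoints set to highest concentration. At the GI50, growth is halved.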 Active and inactive are the calls of the source. No stated cut-off is given here; in the data, active = GI50 up to about 1.1 µM and inactive = higher.

Tests used:
Assay in all cases: inhibition of tumour cell growth, NCI panel, 48 h
A498 = test system: A498
ACHN = test system: ACHN
CAKI-1 = test system: CAKI-1
HCC 2998 = test system: HCC 2998
HL-60 = test system: HL-60
KM12 = test system: KM12
LOX IMVI = test system: LOX IMVI
OVCAR-5 = test system: OVCAR-5
PC-3 = test system: PC-3
RXF 393 = test system: RXF 393
SK-MEL-5 = test system: SK-MEL-5
SNB-75 = test system: SNB-75
TK-10 = test system: TK-10
U-251 = test system: U-251
DLD-1 = test system: DLD-1
DMS-273 = test system: DMS-273
HOP-92 = test system: HOP-92
KM-20L2 = test system: KM-20L2
OVCAR-3 = test system: OVCAR-3
XF498 = test system: XF498

| Structure (SMILES) | GI50 (A498) | GI50 (ACHN) | GI50 (CAKI-1) | GI50 (HCC 2998) | GI50 (HL-60) | GI50 (KM12) | GI50 (LOX IMVI) | GI50 (OVCAR-5) | GI50 (PC-3) | GI50 (RXF 393) | GI50 (SK-MEL-5) | GI50 (SNB-75) | GI50 (TK-10) | GI50 (U-251) | GI50 (DLD-1) | GI50 (DMS-273) | GI50 (HOP-92) | GI50 (KM-20L2) | GI50 (OVCAR-3) | GI50 (XF498) |
| --- | --- | --- | --- | --- | --- | --- | --- | --- | --- | --- | --- | --- | --- | --- | --- | --- | --- | --- | --- | --- |
| CC(C)(CCCCC(C)(C)C1NC(=O)N1)C1NC(=O)N1 | > 10 µM (inactive) | > 10 µM (inactive) | > 10 µM (inactive) | > 10 µM (inactive) | > 10 µM (inactive) | > 10 µM (inactive) | > 10 µM (inactive) | > 10 µM (inactive) | > 10 µM (inactive) | > 10 µM (inactive) | > 10 µM (inactive) | > 10 µM (inactive) | > 10 µM (inactive) | > 10 µM (inactive) | – | – | – | – | – | – |
| CC(C)OP(=O)(OC(C)C)c1ncn(-c2ccc([N+](=O)[O-])cc2)n1 | > 100 µM (inactive) | > 100 µM (inactive) | > 100 µM (inactive) | 86.7 µM (inactive) | > 100 µM (inactive) | > 100 µM (inactive) | – | > 100 µM (inactive) | – | > 100 µM (inactive) | > 100 µM (inactive) | 41.1 µM (inactive) | > 100 µM (inactive) | > 100 µM (inactive) | > 100 µM (inactive) | > 100 µM (inactive) | > 100 µM (inactive) | > 100 µM (inactive) | > 100 µM (inactive) | > 100 µM (inactive) |
| COc1ccc(/C=C2/C(=O)N(C(=O)c3ccccc3O)N=C2C)cc1 | 0.0202 µM (active) | 0.0418 µM (active) | 0.0962 µM (active) | – | 0.292 µM (active) | – | 0.28 µM (active) | 11.2 µM (inactive) | 0.535 µM (active) | < 0.0446 µM (active) | 0.218 µM (active) | – | 6.04 µM (inactive) | 0.0692 µM (active) | 0.0828 µM (active) | – | 0.0441 µM (active) | 16.5 µM (inactive) | 0.338 µM (active) | 0.3 µM (active) |
| CC(=O)Oc1ccc(C2COc3cc(OC(C)=O)c(OC(C)=O)cc3C2)cc1 (centres undefined) | 9.04 µM (inactive) | – | 16.3 µM (inactive) | 21.3 µM (inactive) | 4.11 µM (inactive) | 25 µM (inactive) | > 37.1 µM (inactive) | 56.9 µM (inactive) | – | 13.6 µM (inactive) | 2.95 µM (inactive) | 6.07 µM (inactive) | – | 13.2 µM (inactive) | 17.9 µM (inactive) | 21.9 µM (inactive) | 3.88 µM (inactive) | 37.2 µM (inactive) | 13.7 µM (inactive) | 12.2 µM (inactive) |
| COc1cc2c(cc1OC)C1Cc3cc(OC)c(OC)cc3C(C2)O1 | – | > 100 µM (inactive) | 44.9 µM (inactive) | > 100 µM (inactive) | – | > 100 µM (inactive) | > 100 µM (inactive) | > 100 µM (inactive) | > 100 µM (inactive) | > 100 µM (inactive) | – | > 100 µM (inactive) | > 100 µM (inactive) | > 100 µM (inactive) | – | – | > 100 µM (inactive) | – | > 100 µM (inactive) | – |
| CCCCn1cc[n+](-c2nc3ccccc3n2C)c1 | – | > 100 µM (inactive) | > 100 µM (inactive) | > 100 µM (inactive) | > 100 µM (inactive) | – | > 100 µM (inactive) | > 100 µM (inactive) | – | > 100 µM (inactive) | > 100 µM (inactive) | 45.4 µM (inactive) | > 100 µM (inactive) | > 100 µM (inactive) | > 100 µM (inactive) | > 100 µM (inactive) | – | > 100 µM (inactive) | > 100 µM (inactive) | – |
| N#CCCN(c1ccc(/C=N/c2cccc([N+](=O)[O-])c2)cc1)S(=O)(=O)c1ccccc1 | > 10 µM (inactive) | – | > 100 µM (inactive) | > 100 µM (inactive) | > 100 µM (inactive) | > 100 µM (inactive) | – | – | – | – | – | 75.2 µM (inactive) | > 100 µM (inactive) | – | > 100 µM (inactive) | > 100 µM (inactive) | > 100 µM (inactive) | – | > 100 µM (inactive) | > 100 µM (inactive) |
| CSCSCC(CO)NC(=O)/C(C)=C\c1c(C)[nH]c(=O)[nH]c1=O (centres undefined) | > 250 µM (inactive) | – | 18.3 µM (inactive) | > 250 µM (inactive) | > 250 µM (inactive) | 200 µM (inactive) | > 250 µM (inactive) | 207 µM (inactive) | – | > 250 µM (inactive) | > 250 µM (inactive) | > 250 µM (inactive) | – | > 250 µM (inactive) | > 250 µM (inactive) | > 250 µM (inactive) | 20.3 µM (inactive) | > 250 µM (inactive) | > 250 µM (inactive) | > 64.6 µM (inactive) |
| CCCc1c(-c2ccccc2)[nH]c2ccccc2c1=O | 29 µM (inactive) | 34.8 µM (inactive) | – | 25.2 µM (inactive) | > 100 µM (inactive) | 27.7 µM (inactive) | 23.9 µM (inactive) | 45 µM (inactive) | > 100 µM (inactive) | > 100 µM (inactive) | – | – | 32.6 µM (inactive) | 51.3 µM (inactive) | – | – | > 100 µM (inactive) | – | 31.5 µM (inactive) | – |
| CNCCC=C1c2ccccc2CCc2ccccc21 [NORTRIPTYLINE HYDROCHLORIDE] | 15.4 µM (inactive) | 16.6 µM (inactive) | 13.8 µM (inactive) | – | 16.1 µM (inactive) | 12.2 µM (inactive) | 13.2 µM (inactive) | 15.3 µM (inactive) | 14.3 µM (inactive) | 9.35 µM (inactive) | 11.6 µM (inactive) | 6.47 µM (inactive) | 14.8 µM (inactive) | 14.3 µM (inactive) | – | – | 13.7 µM (inactive) | – | 11.4 µM (inactive) | – |
| CN1CCc2[nH]c3ccccc3c2C1 | > 100 µM (inactive) | – | > 100 µM (inactive) | > 100 µM (inactive) | 87.9 µM (inactive) | > 100 µM (inactive) | > 100 µM (inactive) | > 100 µM (inactive) | – | > 100 µM (inactive) | > 100 µM (inactive) | > 100 µM (inactive) | – | > 100 µM (inactive) | > 100 µM (inactive) | > 100 µM (inactive) | > 100 µM (inactive) | > 100 µM (inactive) | > 100 µM (inactive) | > 100 µM (inactive) |
| Cc1cc(C)c(NC(=O)/C=C/c2ccccc2)c(C)c1 | – | 80.2 µM (inactive) | – | > 100 µM (inactive) | 36.1 µM (inactive) | > 100 µM (inactive) | – | > 100 µM (inactive) | > 100 µM (inactive) | > 100 µM (inactive) | – | 3.93 µM (inactive) | > 100 µM (inactive) | > 100 µM (inactive) | – | – | 56.6 µM (inactive) | – | > 100 µM (inactive) | – |
